Test [1] addresses Cannabinoid receptor 1 (Homo sapiens, UniProt P21554). Briefly: Displacement of [3H]-CP-55940 from recombinant human CB1 receptor overexpressed in HEK293 cell membranes after 90 mins.
Test [2] concerns the target T1, Cannabinoid receptor 2 (Homo sapiens, UniProt P34972). In words: Displacement of [3H]-CP-55940 from recombinant human CB2 receptor overexpressed in HEK293 cell membranes after 90 mins.
The species entered for the next test is Homo sapiens. In words: Selectivity index, ratio of Ki for recombinant human CB1 receptor to Ki for recombinant human CB2 receptor.
Test [3] has as its target T1, Cannabinoid receptor 2. In words: Agonist activity at human CB2 receptor transfected in CHO cell membranes after 90 mins by [35S]-GTPgammaS assay. It counts as functional.
In test [4] the test system is PBMC. Briefly: Antiinflammatory activity in human myelin basic protein activated PBMC isolated from healthy human assessed as inhibition of phosphorylated Cox-2 expression after 6 days by Western blot analysis. It counts as functional, cell-based.
Test [5] deals with PBMC. In words: Antiinflammatory activity in human myelin basic protein activated PBMC isolated from multiple sclerosis patient assessed as inhibition of phosphorylated Akt expression at 10 uM after 6 days by Western blot analysis. The test is classed as functional, cell-based.
For test [6], the system named is PBMC. In words: Antiinflammatory activity in human myelin basic protein activated PBMC isolated from multiple sclerosis patient assessed as inhibition of phosphorylated Cox-2 expression at 10 uM after 6 days by Western blot analysis. It counts as functional, cell-based.
The next test has as its system CHO. In words: Effect on mock-transfected CHO cell membranes after 90 mins by [35S]-GTPgammaS assay. It counts as functional. The settings on record: Cricetulus griseus.
For test [7], the target named is Cannabinoid receptor 1 (Rattus norvegicus) (UniProt P20272). Briefly: Modulation of CB1 receptor-mediated G protein activity in rat cerebellar membranes at < 10 uM after 90 mins by [35S]-GTPgammaS assay. It counts as functional, cell membranes. The following applies: Cerebellum, Membrane.
Cannabinoid receptor 1 (Rattus norvegicus), sequence (P20272 whole entry): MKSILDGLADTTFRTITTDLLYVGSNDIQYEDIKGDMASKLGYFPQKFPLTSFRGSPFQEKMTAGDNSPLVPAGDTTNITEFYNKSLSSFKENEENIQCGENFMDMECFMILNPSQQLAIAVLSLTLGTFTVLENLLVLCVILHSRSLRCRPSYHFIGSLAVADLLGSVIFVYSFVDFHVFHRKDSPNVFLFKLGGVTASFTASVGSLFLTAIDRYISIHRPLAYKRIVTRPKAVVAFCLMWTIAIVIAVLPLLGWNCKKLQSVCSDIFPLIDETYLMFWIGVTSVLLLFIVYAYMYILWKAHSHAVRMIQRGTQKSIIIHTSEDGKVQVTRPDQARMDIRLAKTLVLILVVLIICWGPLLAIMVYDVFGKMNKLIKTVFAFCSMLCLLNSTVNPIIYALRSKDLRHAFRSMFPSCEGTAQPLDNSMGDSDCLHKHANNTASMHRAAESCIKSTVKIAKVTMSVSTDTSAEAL
Test [8] deals with LNCaP. Briefly: Cytotoxicity against human LNCAP cells expressing CB2 receptor assessed as decrease in cell viability after 72 hrs by neutral red uptake and accumulation assay.
Test [9] has as its system LNCaP. In words: Cytotoxicity against human LNCAP cells expressing CB2 receptor assessed as decrease in cell viability at 2 uM after 72 hrs by neutral red uptake and accumulation assay in presence of CB2 receptor antagonist MC21 relative to control. It counts as functional, cell-based.
In test [10] the test system is PBMC. Briefly: Immunomodulatory activity in human myelin basic protein activated PBMC isolated from healthy human assessed as decrease in cell proliferation after 6 days by trypan blue staining-based haemocytometric analysis relative to control. It counts as functional.
For test [11], the system named is PBMC. In words: Immunomodulatory activity in human myelin basic protein activated PBMC isolated from multiple sclerosis patient assessed as decrease in cell proliferation after 6 days by trypan blue staining-based haemocytometric analysis relative to control. It counts as functional.
Test [12] concerns PBMC. Briefly: Immunomodulatory activity in human myelin basic protein activated PBMC isolated from healthy human assessed as inhibition of CD54 expression after 6 days by flow cytometric analysis. It counts as functional, cell-based.
Test [13] has as its system PBMC. Briefly: Immunomodulatory activity in human myelin basic protein activated PBMC isolated from healthy human assessed as inhibition of CD69 expression after 6 days by flow cytometric analysis. It counts as functional, cell-based.
Test [14] relates to PBMC. In words: Immunomodulatory activity in human myelin basic protein activated PBMC isolated from healthy human assessed as inhibition of CD25 expression after 6 days by flow cytometric analysis. The test is classed as functional, cell-based.
For test [15], the system named is PBMC. Briefly: Immunomodulatory activity in human myelin basic protein activated PBMC isolated from healthy human assessed as inhibition of CD62 expression after 6 days by flow cytometric analysis. It counts as functional, cell-based.
The subject of test [16] is PBMC. In words: Immunomodulatory activity in human myelin basic protein activated PBMC isolated from healthy human assessed as inhibition of CD49d expression after 6 days by flow cytometric analysis. It counts as functional, cell-based.
Test [17] concerns PBMC. In words: Immunomodulatory activity in human myelin basic protein activated PBMC isolated from multiple sclerosis patient assessed as inhibition of CD54 expression at 10 uM after 6 days by flow cytometric analysis. It counts as functional, cell-based.
Test [18] deals with PBMC. In words: Immunomodulatory activity in human myelin basic protein activated PBMC isolated from multiple sclerosis patient assessed as inhibition of CD25 expression at 10 uM after 6 days by flow cytometric analysis. The test is classed as functional, cell-based.
The test system of test [19] is PBMC. In words: Immunomodulatory activity in human myelin basic protein activated PBMC isolated from multiple sclerosis patient assessed as inhibition of CD49d expression at 10 uM after 6 days by flow cytometric analysis. It counts as functional, cell-based.
In test [20] the test system is PBMC. In words: Antiinflammatory activity in human myelin basic protein activated PBMC isolated from healthy human assessed as inhibition of phosphorylated Akt expression after 6 days by Western blot analysis. The test is classed as functional, cell-based.
Test [21] has as its system PBMC. Briefly: Antiinflammatory activity in human myelin basic protein activated PBMC isolated from healthy human assessed as inhibition of phosphorylated Akt expression at 10 uM after 6 days by Western blot analysis. It counts as functional, cell-based.
The subject of test [22] is PBMC. In words: Antiinflammatory activity in human myelin basic protein activated PBMC isolated from healthy human assessed as inhibition of phosphorylated Cox-2 expression at 10 uM after 6 days by Western blot analysis. It counts as functional, cell-based.
For test [23], the target named is Cannabinoid receptor 1 (Rattus norvegicus) (UniProt P20272). In words: Agonist activity at CB1 receptor in rat cerebellar membranes at 3 uM after 90 mins by [35S]-GTPgammaS assay in presence of CB1 antagonist AM251. It counts as functional, cell membranes. The settings on record: Cerebellum, Membrane.
Test [24] has as its target Cannabinoid receptor 1 (Rattus norvegicus, UniProt P20272). In words: Agonist activity at CB1 receptor in rat cerebellar membranes after 90 mins by [35S]-GTPgammaS assay. It counts as functional, cell membranes, Cerebellum, Membrane.
Test [25] has as its target Cannabinoid receptor 1 (Rattus norvegicus) (UniProt P20272). In words: Agonist activity at CB1 receptor in rat cerebellar membranes after 90 mins by [35S]-GTPgammaS assay relative to 2-AG. The test is classed as functional, cell membranes. The settings on record: Cerebellum, Membrane.
The test system of test [26] is LNCaP. Briefly: Cytotoxicity against human LNCAP cells expressing CB2 receptor assessed as decrease in cell viability at 5 uM after 72 hrs by neutral red uptake and accumulation assay in presence of CB2 receptor antagonist MC21 relative to control. It counts as functional, cell-based.
Test [27] relates to PBMC. In words: Immunomodulatory activity in human myelin basic protein activated PBMC isolated from healthy human assessed as viable cells at 10 uM after 6 days by trypan blue staining-based haemocytometric analysis. The test is classed as functional. The following applies: 144 h, read-out: Activity.
Test [28] concerns PBMC. In words: Immunomodulatory activity in human myelin basic protein activated PBMC isolated from multiple sclerosis patient assessed as decrease in cell proliferation at 10 uM after 6 days by trypan blue staining-based haemocytometric analysis relative to control. The test is classed as functional.
Test [29] deals with PBMC. Briefly: Immunomodulatory activity in human myelin basic protein activated PBMC isolated from healthy human assessed as inhibition of CD54 expression at 10 uM after 6 days by flow cytometric analysis. It counts as functional, cell-based.
Test [30] deals with PBMC. In words: Immunomodulatory activity in human myelin basic protein activated PBMC isolated from healthy human assessed as inhibition of CD69 expression at 10 uM after 6 days by flow cytometric analysis. It counts as functional, cell-based.
The subject of test [31] is PBMC. In words: Immunomodulatory activity in human myelin basic protein activated PBMC isolated from healthy human assessed as inhibition of CD25 expression at 10 uM after 6 days by flow cytometric analysis. The test is classed as functional, cell-based.
In test [32] the test system is PBMC. Briefly: Immunomodulatory activity in human myelin basic protein activated PBMC isolated from healthy human assessed as inhibition of CD62 expression at 10 uM after 6 days by flow cytometric analysis. It counts as functional, cell-based.
For test [33], the system named is PBMC. Briefly: Immunomodulatory activity in human myelin basic protein activated PBMC isolated from healthy human assessed as inhibition of CD49d expression at 10 uM after 6 days by flow cytometric analysis. It counts as functional, cell-based.

Activity calls are given as the source filed them. No cut-off for these calls is given here.

T1 sequence (P34972 whole entry): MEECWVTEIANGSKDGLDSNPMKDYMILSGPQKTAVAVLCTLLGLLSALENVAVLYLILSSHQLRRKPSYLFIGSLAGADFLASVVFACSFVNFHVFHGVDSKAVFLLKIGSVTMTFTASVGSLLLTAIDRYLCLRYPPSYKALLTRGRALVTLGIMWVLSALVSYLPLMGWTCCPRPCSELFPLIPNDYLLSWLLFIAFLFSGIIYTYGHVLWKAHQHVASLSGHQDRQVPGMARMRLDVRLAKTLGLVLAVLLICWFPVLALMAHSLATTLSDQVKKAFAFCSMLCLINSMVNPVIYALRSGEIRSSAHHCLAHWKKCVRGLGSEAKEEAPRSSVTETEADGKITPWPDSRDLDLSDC
Cannabinoid receptor 1 (Homo sapiens, UniProt P21554), sequence (P21554 whole entry): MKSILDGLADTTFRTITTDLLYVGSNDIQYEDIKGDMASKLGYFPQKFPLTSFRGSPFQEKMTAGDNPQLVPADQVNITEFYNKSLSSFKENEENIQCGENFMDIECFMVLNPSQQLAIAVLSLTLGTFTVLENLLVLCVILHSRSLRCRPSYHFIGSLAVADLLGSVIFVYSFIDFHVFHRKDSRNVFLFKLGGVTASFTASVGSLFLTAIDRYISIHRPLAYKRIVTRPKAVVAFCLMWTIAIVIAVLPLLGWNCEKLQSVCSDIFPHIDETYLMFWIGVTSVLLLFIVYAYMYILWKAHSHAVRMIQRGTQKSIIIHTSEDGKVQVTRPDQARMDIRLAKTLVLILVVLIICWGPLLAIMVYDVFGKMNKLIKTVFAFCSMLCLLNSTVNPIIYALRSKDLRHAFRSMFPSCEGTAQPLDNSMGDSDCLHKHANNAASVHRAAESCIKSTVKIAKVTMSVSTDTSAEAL
Cannabinoid receptor 1 (Rattus norvegicus, UniProt P20272), sequence (P20272 whole entry): as the sequence (P20272 whole entry) above

Consider `CCCCn1c(=O)c(C(=O)NC2CCC(C)CC2)c(O)c2cccnc21` (configuration not stated), for which the results for the Ki on Cannabinoid receptor 1 [1] and at Cannabinoid receptor 2 [2] were 701 nM and 11.2 nM, respectively. Also, the Ratio Ki in the test listed under Homo sapiens was determined as 62.
At Cannabinoid receptor 2 [3], `CCCCCCC(C)(C)c1cc(O)c2c(c1)OC(C)(C)[C@@H]1CC=C(CO)C[C@@H]21` registered an Emax of 290%.
With `CC1CCC(NC(=O)c2c(O)c3cccnc3n(Cc3ccc(F)cc3)c2=O)CC1` (configuration not stated), the inhibition entry in the test on PBMC [4], in the test on PBMC [12], with PBMC [13], with PBMC [14], with PBMC [15] and in the test on PBMC [16] was “Dose-dependent effect” in each case. In the test with PBMC [20], the inhibition result is “Dose-dependent effect”. Moreover, the inhibition result with PBMC [5], with PBMC [6], in the test with PBMC [17], with PBMC [18] and with PBMC [19] was “Active” in each case. Also, the Ki on Cannabinoid receptor 1 [1] stood at 138 nM; at Cannabinoid receptor 2 [2] it was 0.75 nM. The compound also had an EC50 on Cannabinoid receptor 2 [3] of 3.16 nM. The compound also showed an Emax at Cannabinoid receptor 2 [3] of 216%. For the same compound, the result (in the test with CHO; in test [7]; in the test with LNCaP [9]) was inactive. Moreover, in the test with LNCaP [8], the IC50 worked out at 2.08 µM. The Activity result with PBMC [10] and in the test with PBMC [11] was “Dose-dependent effect” each time.
Take `CCCn1c(=O)c(C(=O)NC2CCC(C)CC2)cc2ccccc21` (configuration not stated): the values for the Ki on Cannabinoid receptor 1 [1] and on Cannabinoid receptor 2 [2] were 2610 nM and 25.4 nM, respectively. Besides, the Ratio Ki in the test filed under Homo sapiens was 102.
Take `CC1CCC(NC(=O)c2cc3ccccc3n(CCN3CCOCC3)c2=O)CC1` (configuration not stated): the results for the Ki at Cannabinoid receptor 1 [1] and on Cannabinoid receptor 2 [2] were 800 nM and 4.2 nM, respectively. In addition, the Ratio Ki in the test listed under Homo sapiens came to 190.
Take `CCCCn1c(=O)c(C(=O)NC2CCC(C)CC2)cc2ccccc21` (configuration not stated): the values for the Ki on Cannabinoid receptor 1 [1] and on Cannabinoid receptor 2 [2] were 551 nM and 19.8 nM, respectively. For the same compound, in the test listed under Homo sapiens, the Ratio Ki worked out at 28.
With `CC1CCC(NC(=O)c2c(O)c3cccnc3n(CCN3CCOCC3)c2=O)CC1` (configuration not stated), the Ki at Cannabinoid receptor 1 [1] is 630 nM; at Cannabinoid receptor 2 [2] it was 7.44 nM. The Ratio Ki in the test listed under Homo sapiens worked out at 85.
Consider `CCCC(C)(C)c1ccc2c(c1)OC(C)(C)[C@@H]1CC=C(C)C[C@@H]21`, for which, in the test on LNCaP [8], the IC50 is 11.7 µM.
As for `CC1CCC(NC(=O)c2cc3ccccc3n(Cc3ccc(F)cc3)c2=O)CC1` (configuration not stated), the inhibitory constant (Ki) at Cannabinoid receptor 1 [1] amounted to 19.4 nM; at Cannabinoid receptor 2 [2], 0.75 nM. Further, the Ratio Ki in the test filed under Homo sapiens came out at 27.7.
Turning to `CC1CCC(NC(=O)c2cc3ccccc3n(CCCO)c2=O)CC1` (configuration not stated), the figures for the inhibition constant Ki at Cannabinoid receptor 1 [1] and on Cannabinoid receptor 2 [2] were 3760 nM and 36 nM, respectively. Also, the Ratio Ki in the test filed under Homo sapiens amounted to 104.
Regarding `CC1CCC(NC(=O)c2c(O)c3cccnc3n(CCCO)c2=O)CC1` (configuration not stated), the Ki at Cannabinoid receptor 1 [1] is above 10000 nM; at Cannabinoid receptor 2 [2] it was 215 nM. The Ratio Ki in the test filed under Homo sapiens was above 4.6.
On to `CCCCCn1c(=O)c(C(=O)NC2CCC(C)CC2)cc2ccccc21` (configuration not stated), for which the inhibition result in the test with PBMC [21], with PBMC [22], in the test with PBMC [30] and in the test with PBMC [31] was “Active” throughout. Moreover, the figures for the Ki on Cannabinoid receptor 1 [1] and at Cannabinoid receptor 2 [2] were 227 nM and 1.5 nM, respectively. The results for the EC50 on Cannabinoid receptor 2 [3] and at Cannabinoid receptor 1 [24] were 2 nM and 2510 nM, respectively. The maximal effect (Emax) at Cannabinoid receptor 2 [3] was found to be 280%; in test [25], 230%. For the same compound, the result (in [23]; in the test with CHO; in the test on LNCaP [26]) was inactive. Further, the IC50 in the test on LNCaP [8] was 3.9 µM. The viability at 10 µM in the test with PBMC [27] is 71.5%. Further, the result in the test with PBMC [28] was Active. Moreover, the inhibition entry in the test on PBMC [29], in the test on PBMC [32] and in the test with PBMC [33] was “inactive” throughout.
